In patent publication US8877769B2, “Heteroaryl-substituted urea modulators of fatty acid amide hydrolase” (Janssen Pharmaceutica NV, priority 2008, dated 2014):

What was measured:
anxiety = settings: rats; zero plus maze; cited from earlier work
[1] = rat formalin test; cited from earlier work
thermal nociception [2] = settings: rat hot plate test; cited from earlier work
FAAH [3] = target: T1, FAAH (Homo sapiens, UniProt O00519); settings: cited from earlier work
T1 sequence (O00519 1-579): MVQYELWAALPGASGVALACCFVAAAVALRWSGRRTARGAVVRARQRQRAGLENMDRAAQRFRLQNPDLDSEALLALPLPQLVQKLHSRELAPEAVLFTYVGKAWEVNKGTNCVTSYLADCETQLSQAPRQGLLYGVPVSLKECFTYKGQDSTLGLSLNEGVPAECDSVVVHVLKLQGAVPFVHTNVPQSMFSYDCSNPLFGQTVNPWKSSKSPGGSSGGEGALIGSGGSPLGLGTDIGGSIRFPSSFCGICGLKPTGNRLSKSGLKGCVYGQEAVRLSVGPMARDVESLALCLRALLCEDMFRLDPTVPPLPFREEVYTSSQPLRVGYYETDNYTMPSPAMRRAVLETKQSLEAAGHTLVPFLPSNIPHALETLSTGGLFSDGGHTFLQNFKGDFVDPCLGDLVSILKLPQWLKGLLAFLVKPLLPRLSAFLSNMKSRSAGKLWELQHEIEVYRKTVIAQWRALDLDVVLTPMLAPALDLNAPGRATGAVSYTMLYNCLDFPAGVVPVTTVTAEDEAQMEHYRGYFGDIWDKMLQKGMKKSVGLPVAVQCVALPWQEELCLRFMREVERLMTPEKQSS

thermal nociception [4] = settings: rats; tail emersion test; cited from earlier work
spasticity = settings: CREAE mice; cited from earlier work
Rat FAAH = target: T2, Rat FAAH (Rattus norvegicus, UniProt P97612); experiment: Assay Method 2: FAAH assay, 3H-anandamide hydrolysis in cell homogenate; type: biochemical; settings: average of results obtained, > value = solubility limit or highest concentration tested
T2 construct: expressed in transfected cells
T2 sequence (P97612 1-579): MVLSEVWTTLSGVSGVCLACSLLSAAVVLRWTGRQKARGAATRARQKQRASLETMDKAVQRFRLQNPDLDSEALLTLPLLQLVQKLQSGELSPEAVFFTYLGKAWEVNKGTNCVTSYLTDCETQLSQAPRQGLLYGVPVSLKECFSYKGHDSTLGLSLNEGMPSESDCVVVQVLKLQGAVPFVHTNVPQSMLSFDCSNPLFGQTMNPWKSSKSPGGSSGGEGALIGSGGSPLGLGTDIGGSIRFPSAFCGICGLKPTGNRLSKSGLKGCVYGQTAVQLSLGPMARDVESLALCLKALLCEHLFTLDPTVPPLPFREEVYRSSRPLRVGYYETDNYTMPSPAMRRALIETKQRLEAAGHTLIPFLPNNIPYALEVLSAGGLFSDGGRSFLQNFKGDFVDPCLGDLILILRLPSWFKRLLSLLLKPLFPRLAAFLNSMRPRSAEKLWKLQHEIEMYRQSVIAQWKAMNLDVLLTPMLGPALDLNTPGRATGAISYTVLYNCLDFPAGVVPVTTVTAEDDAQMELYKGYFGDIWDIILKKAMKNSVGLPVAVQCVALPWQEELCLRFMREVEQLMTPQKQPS

FAAH [5] = target: T1, FAAH; experiment: Assay Method 1: FAAH assay, 3H-anandamide hydrolysis in cell homogenate
Protocol: The assay mixture consisted of 50 μL of the cell homogenate, 10 μL of the test compound, and 40 μL of anandamide [1-^3H-ethanolamine] (^3H-AEA, Perkin-Elmer, 10.3 Ci/mmol), which was added last, for a final tracer concentration of 80 nM. The reaction mixture was incubated at rt for 1 h. During the incubation, 96-well Multiscreen filter plates (catalog number MAFCNOB50; Millipore, Bedford, Mass., USA) were loaded with 25 μL of activated charcoal (Multiscreen column loader, catalog number MACL09625, Millipore) and washed once with 100 μL of MeOH. […] After the 1 h incubation, 60 μL of the reaction mixture were transferred to the charcoal plates, which were then assembled on top of the DYNEX plates using Centrifuge Alignment Frames (catalog number MACF09604, Millipore). The unbound labeled ethanolamine was centrifuged through to the bottom plate (5 min at 2000 rpm), which was preloaded with the scintillant, as described above. The plates were sealed and left at rt for 1 h before counting on a Hewlett Packard TopCount. • Assay Method 2

neuropathic pain = settings: rats; Chung spinal nerve ligation model; cited from earlier work
[6] = test system: acute thermal nociception; settings: rats; Hargraves test; cited from earlier work

Row | IC50 (Rat FAAH) [nM] | IC50 (FAAH [5]) [nM] | Compound | other results
1 |  |  | NC(=O)c1cccc(-c2cccc(OC(=O)NC3CCCCC3)c2)c1 [URB-597] | efficacy in anxiety model (anxiety): efficacy; analgesic efficacy [1]: analgesic efficacy; analgesic efficacy / activity (thermal nociception [2]): analgesic efficacy
2 |  |  | O=C(CCCCCCc1ccccc1)c1ncc(-c2ccccn2)o1 [OL-135] | inhibition of FAAH (FAAH [3]): potent inhibitor; analgesic activity (thermal nociception [4]): analgesic activity; analgesic efficacy / activity (thermal nociception [2]): analgesic activity
3 |  |  | CCCCCCCCCCCCCCCCS(=O)(=O)F [AM374] | reduction of spasticity (spasticity): significantly reduce spasticity
4 | 4000 | 220 | CC(C)n1ncc2cc(NC(=O)N3CCN(Cc4cccc(Oc5ccc(Cl)cc5)c4)CC3)cnc21 [Example 62, 4-[3-(4-Chloro-phenoxy)-benzyl]-piperazine-1-carboxylic acid (1-isopropyl-1H-pyrazolo[3,4-b]pyridin-5-yl)-amide] | 
5 |  |  | Cc1nc(-c2ccccc2)c(-c2ccccc2)n1CCCCCCNC(=O)Oc1ccccc1F [BMS-1] | analgesic effect (neuropathic pain): analgesic effect; analgesic effect [6]: analgesic effect
6 | 100 | 200 | O=C(Nc1noc2ncccc12)N1CCN(Cc2cccc(Oc3ccc(OC(F)(F)F)cc3)c2)CC1 [Example 37, 4-[3-(4-Trifluoromethoxy-phenoxy)-benzyl]-piperazine-1-carboxylic acid isoxazolo[5,4-b]pyridin-3-ylamide] | 
7 | 3000 | 2000 | O=C(Nc1ccc2ncoc2c1)N1CCN(Cc2ccc3c(c2)OC(F)(F)O3)CC1 [Example 47, 4-(2,2-Difluoro-benzo[1,3]dioxol-5-ylmethyl)-piperazine-1-carboxylic acid benzooxazol-6-ylamide] | 
8 | > 10000 | 2600 | O=C(Nc1noc2ncccc12)N1CCN(Cc2ccc3ccccc3n2)CC1 [Example 12, 4-Quinolin-2-ylmethyl-piperazine-1-carboxylic acid isoxazolo[5,4-b]pyridin-3-ylamide] | 
9 | 430 | 340 | O=C(Nc1noc2ncccc12)N1CCN(Cc2cccc(Oc3ccc(C(F)(F)F)cc3)c2)CC1 [Example 30, 4-[3-(4-Trifluoromethyl-phenoxy)-benzyl]-piperazine-1-carboxylic acid isoxazolo[5,4-b]pyridin-3-ylamide] | 
10 | > 10000 | 3200 | O=C(Nc1noc2ncccc12)N1CCN(Cc2cccc(Oc3ccc(F)c(F)c3)c2)CC1 [Example 26, 4-[3-(3,4-Difluoro-phenoxy)-benzyl]-piperazine-1-carboxylic acid isoxazolo[5,4-b]pyridin-3-ylamide] | 
11 | 220 | 2000 | O=C(Nc1noc2cccnc12)N1CCN(Cc2ccc3c(c2)OC(F)(F)O3)CC1 [Example 42, 4-(2,2-Difluoro-benzo[1,3]dioxol-5-ylmethyl)-piperazine-1-carboxylic acid isoxazolo[4,5-b]pyridin-3-ylamide] | 
